In patent US20080219973A1, “Pharmaceutical Composition Having Inhibitory Effect on Overproduction and Accumulation of Extracellular Matrix” (TEIJIN LIMITED, priority 1998, published 2008):

How the values were obtained:
Assay type in all cases: cell-based
rat mesangium cells [1] = assay: Suppressive activity of galectin-3 on the cellular death of rat mesangium cells (MTS tetrazolium conversion); conditions: 50 μg/ml galectin-3; presence and absence of 0.4 ng/ml TGF-β; day 1-4; FIG. 3
Description: Rat mesangium cells were separated from Sprague-Dawley rats according to the method of Striker et al. (Striker, G. E., et al., Lab. Invest. (1985) 53; 123-128). The separated rat mesangium cells were cultured at 37° C. in the presence of 5% CO2 in the wells of a 96-well plate using an essential medium (DMEM/F12 (1:1) culture medium containing 60 μg/ml penicillin, 100 μg/ml streptomycin, manufactured by Gibco BRL) supplemented with 10% fetal bovine serum. After culturing to semi-confluence, the cultured rat mesangium cells were washed with the essential medium, cultured for 2 days in the essential medium supplemented with 0.1% bovine serum albumin (Sigma), and then were further cultured for 1 to 4 days in the essential medium supplemented with 0.1% bovine serum albumin (Sigma) containing 0 or 50 μg/ml galectin-3 and 0 or 0.4 ng/ml TGF-β. On day 1, 2, 3, and 4 after the addition of galectin-3 and TGF-β, the amount of the cultured rat mesangium cells that survived in their respective wells were measured using as an index the conversion from MTS tetrazolium (Cell Titer 96 Aqueous one solution manufactured by Promega) to formazan by the living cells.

rat mesangium cells [2] = assay: Promoting effect of galectin-3 on collagen type IV production by mesangium cells (sandwich ELISA); conditions: 10 or 30 μg/ml galectin-3; 0-1.6 ng/ml TGF-β; day 3; FIG. 4
Description: Rat mesangium cells were separated in a similar manner to that of Example 3. The separated mesangium cells were cultured at 37° C. in the presence of 5% CO2 in the wells of a 96-well plate using an essential medium (DMEM/F12 (1:1) culture medium containing 60 μg/ml penicillin, 100 μg/ml streptomycin, manufactured by Gibco BRL) supplemented with 10% fetal bovine serum. After culturing to confluence, the cultured rat mesangium cells were washed with the essential medium, cultured for 1 to 2 days in the essential medium supplemented with 0.1% bovine serum albumin (Sigma), and then were further cultured for 3 days in the essential medium supplemented with 0.1% bovine serum albumin (Sigma) containing 0, 10 or 30 μg/ml galectin-3 and 0, 0.1, 0.4 or 1.6 ng/ml TGF-β. On day 3 after the addition of galectin-3 and TGF-β, the amount of type IV collagen accumulated in the culture liquid was measured using a sandwich ELISA method that employed a goat anti-type IV collagen antibody as the immobilized antibody and a biotin-labeled goat anti-type IV collagen antibody (Chemicon) as the primary antibody. The amount of type IV collagen in the culture liquid of each well was normalized by dividing it by the amount of the living cells in each well determined in a similar manner to that described in Example 3.

galectin-3 = galectin-3 (Homo sapiens, UniProt P17931); assay: Inhibition by galectin-3-binding inhibiting sugar of galectin-3-promoted collagen type IV production by rat mesangium cells; conditions: 0.4 μg/ml galectin-3, 0.25-2 mM LNFP-I, day 2, FIG. 6
Description: Rat mesangium cells were separated in a similar manner to that described in Example 3. The separated rat mesangium cells were cultured at 37° C. in the presence of 5% CO2 in the wells of a 96-well plate using an essential medium (DMEM/F12 (1:1) culture medium containing 60 μg/ml penicillin, 100 μg/ml streptomycin, manufactured by Gibco BRL) supplemented with 10% fetal bovine serum. […] On day 2 after the addition of galectin-3 and LNFP-I, the amount of type IV collagen accumulated in the culture liquid of each well was measured using a sandwich ELISA method that employed a goat anti-type IV collagen antibody (Chemicon) as an immobilized antibody and a biotin-labeled goat anti-type IV collagen antibody (Chemicon) as a primary antibody. The amount of type IV collagen in the culture medium of each well was normalized by dividing it by the amount of the living cells in each well determined in a similar manner to that described in Example 4.

Chain of galectin-3 (P17931 whole entry, species assumed): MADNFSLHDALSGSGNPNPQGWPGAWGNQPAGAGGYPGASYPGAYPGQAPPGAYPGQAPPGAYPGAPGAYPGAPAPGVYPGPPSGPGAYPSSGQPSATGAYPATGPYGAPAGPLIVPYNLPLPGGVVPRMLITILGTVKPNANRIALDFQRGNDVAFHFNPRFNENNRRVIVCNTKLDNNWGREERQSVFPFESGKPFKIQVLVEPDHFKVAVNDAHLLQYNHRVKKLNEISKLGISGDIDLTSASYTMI

Substance	cellular death of the rat mesangium cells (amount of surviving cells) (rat mesangium cells [1])	production and/or accumulation of type IV collagen in culture liquid, normalized to living cells (rat mesangium cells [2])	suppression of galectin-3-promoted production and/or accumulation of type IV collagen (galectin-3)
galectin-3: protein of about 30 Kd belonging to the family of β-galactoside binding protein; a lectin	suppress the cellular death	promotes the production and/or the accumulation of type IV collagen	
lacto-n-fucopentaose I			suppresses the promotion of the production and/or the accumulation of type IV collagen
